Reference: US20210115040A1, “OGA INHIBITOR COMPOUNDS” (Janssen Pharmaceutica NV, priority 2018, published 2021)

biological target: T1, recombinant human Meningioma Expressed Antigen 5 (MGEA5), also referred to as O-GlcNAcase (OGA) (Homo sapiens, UniProt O60502); test: OGA biochemical assay (inhibition of FM-GlcNAc hydrolysis, fluorescence); conditions: FM-GlcNAc substrate, 6 h at room temperature, read-out: Enzymatic hOGA, pIC50 (converted)
T1 construct: Full length OGA enzyme was purchased at OriGene (cat #TP322411); purchased OriGene TP322411
T1 sequence (O60502 1-916): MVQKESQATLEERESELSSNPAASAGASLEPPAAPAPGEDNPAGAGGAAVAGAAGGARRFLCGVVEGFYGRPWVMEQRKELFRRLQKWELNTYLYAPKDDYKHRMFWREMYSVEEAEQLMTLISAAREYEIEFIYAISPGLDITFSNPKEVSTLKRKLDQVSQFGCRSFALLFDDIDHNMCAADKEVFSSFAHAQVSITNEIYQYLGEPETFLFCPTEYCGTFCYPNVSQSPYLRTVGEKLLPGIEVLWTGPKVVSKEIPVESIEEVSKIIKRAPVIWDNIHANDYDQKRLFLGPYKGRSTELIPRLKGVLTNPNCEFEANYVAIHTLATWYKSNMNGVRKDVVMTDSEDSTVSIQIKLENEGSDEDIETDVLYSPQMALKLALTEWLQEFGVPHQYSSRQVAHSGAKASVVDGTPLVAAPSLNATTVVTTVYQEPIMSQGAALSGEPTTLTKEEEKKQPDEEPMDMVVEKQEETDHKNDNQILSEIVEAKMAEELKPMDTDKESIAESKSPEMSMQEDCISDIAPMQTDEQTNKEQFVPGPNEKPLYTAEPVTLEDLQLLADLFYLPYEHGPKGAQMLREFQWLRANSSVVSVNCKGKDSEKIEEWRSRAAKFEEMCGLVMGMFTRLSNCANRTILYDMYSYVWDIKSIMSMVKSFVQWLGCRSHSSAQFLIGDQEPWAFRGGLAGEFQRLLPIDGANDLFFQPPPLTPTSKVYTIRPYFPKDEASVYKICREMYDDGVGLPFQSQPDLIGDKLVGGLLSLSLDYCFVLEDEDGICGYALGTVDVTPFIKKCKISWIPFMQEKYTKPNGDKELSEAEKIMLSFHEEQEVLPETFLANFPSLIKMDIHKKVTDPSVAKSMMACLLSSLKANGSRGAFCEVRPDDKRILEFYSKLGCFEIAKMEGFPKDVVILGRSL
Text: The assay is based on the inhibition of the hydrolysis of fluorescein mono-β-D-N-Acetyl-Glucosamine (FM-GlcNAc) (Mariappa et al. 2015, Biochem J 470:255) by the recombinant human Meningioma Expressed Antigen 5 (MGEA5), also referred to as O-GlcNAcase (OGA). The hydrolysis FM-GlcNAc (Marker Gene technologies, cat #M1485) results in the formation of β-D-N-glucosamineacetate and fluorescein. The fluorescence of the latter can be measured at excitation wavelength 485 nm and emission wavelength 538 nm. An increase in enzyme activity results in an increase in fluorescence signal. Full length OGA enzyme was purchased at OriGene (cat #TP322411). The enzyme was stored in 25 mM Tris.HCl, pH 7.3, 100 mM glycine, 10% glycerol at −20° C. Thiamet G and GlcNAcStatin were tested as reference compounds (Yuzwa et al. 2008 Nature Chemical Biology 4:483; Yuzwa et al. 2012 Nature Chemical Biology 8:393). The assay was performed in 200 mM Citrate/phosphate buffer supplemented with 0.005% Tween-20. 35.6 g Na2HPO4 2H2O (Sigma, #C0759) were dissolved in 1 L water to obtain a 200 mM solution. 19.2 g citric acid (Merck, #1.06580) was dissolved in 1 L water to obtain a 100 mM solution. pH of the sodiumphosphate solution was adjusted with the citric acid solution to 7.2. The buffer to stop the reaction consists of a 500 mM Carbonate buffer, pH 11.0. 734 mg FM-GlcNAc were dissolved in 5.48 mL DMSO to obtain a 250 mM solution and was stored at −20° C. OGA was used at a 2 nM concentration and FM-GlcNAc at a 100 uM final concentration. Dilutions were prepared in assay buffer.
50 nl of a compound dissolved in DMSO was dispensed on Black Proxiplate™ 384 Plus Assay plates (Perkin Elmer, #6008269) and 3 μl fl-OGA enzyme mix added subsequently. Plates were pre-incubated for 60 min at room temperature and then 2 μl FM-GlcNAc substrate mix added. […] Plates were briefly centrifuged for 1 min at 1000 rpm and incubate at room temperature for 6 h. To stop the reaction 5 μl STOP buffer were added and plates centrifuge again 1 min at 1000 rpm. Fluorescence was quantified in the Thermo Scientific Fluoroskan Ascent or the PerkinElmer EnVision with excitation wavelength 485 nm and emission wavelength 538 nm.
For analysis a best-fit curve is fitted by a minimum sum of squares method. From this an IC50 value and Hill coefficient was obtained. High control (no inhibitor) and low control (saturating concentrations of standard inhibitor) were used to define the minimum and maximum values.

| IC50 | SMILES |
| --- | --- |
| 0.0316 µM | Cc1cc(C[C@H]2CCCN(C(C)c3cnc4c(c3)nc(C)n4C)C2)cc(C)n1 (mixture of isomers) [Compound 11] |
| 0.398 µM | Cc1cc(OC[C@@H]2CCN(C(C)c3ccc4sc(C)nc4n3)C2)cc(C)n1 (mixture of isomers) [Compound 47] |
| 0.794 µM | Cc1cc(OC[C@H]2CCN(C(C)c3ccc4sc(C)nc4n3)C2)cc(C)n1 (mixture of isomers) [Compound 48] |
| 0.501 µM | Cc1cc(C[C@H]2CCCN(C(C)c3ccc4nc(C)sc4c3)C2)cc(C)n1 (mixture of isomers) [Compound 51] |
| 0.0631 µM | Cc1cc(C[C@H]2CCCN(Cc3ccc4sc(C)nc4n3)C2)cc(C)n1 (mixture of isomers) [Compound 52] |
| 0.01 µM | COc1cc(OC[C@H]2CCCN(C(C)c3ccc4sc(C)nc4n3)C2)cc(C)n1 (mixture of isomers) [Compound 54] |
| 0.00316 µM | Cc1cc(CO[C@H]2CCCN(C(C)c3cc4nc(C)sc4cc3F)C2)cc(C)n1 (mixture of isomers) [Compound 99] |
| 0.1 µM | Cc1cc(C[C@H]2CCCN(C(C)c3ccc4nc(C)[nH]c4n3)C2)cc(C)n1 (mixture of isomers) [Compound 8] |
| 0.0251 µM | Cc1cc(C[C@H]2CCCN(C(C)c3ccc4cn(C)nc4n3)C2)cc(C)n1 (mixture of isomers) [Compound 12ab] |

same assay, conditions: FM-GlcNAc substrate, maximal effect, read-out: Enzymatic Emax (%)

| Emax | SMILES |
| --- | --- |
| 100% | Cc1cc(C[C@H]2CCCN(C(C)c3cnc4c(c3)nc(C)n4C)C2)cc(C)n1 (mixture of isomers) [Compound 11] |
| 99% | Cc1cc(OC[C@@H]2CCN(C(C)c3ccc4sc(C)nc4n3)C2)cc(C)n1 (mixture of isomers) [Compound 47] |
| 93% | Cc1cc(OC[C@H]2CCN(C(C)c3ccc4sc(C)nc4n3)C2)cc(C)n1 (mixture of isomers) [Compound 48] |
| 99% | Cc1cc(C[C@H]2CCCN(C(C)c3ccc4nc(C)sc4c3)C2)cc(C)n1 (mixture of isomers) [Compound 51] |
| 103% | Cc1cc(C[C@H]2CCCN(Cc3ccc4sc(C)nc4n3)C2)cc(C)n1 (mixture of isomers) [Compound 52] |
| 100% | COc1cc(OC[C@H]2CCCN(C(C)c3ccc4sc(C)nc4n3)C2)cc(C)n1 (mixture of isomers) [Compound 54] |
| 99% | Cc1cc(CO[C@H]2CCCN(C(C)c3cc4nc(C)sc4cc3F)C2)cc(C)n1 (mixture of isomers) [Compound 99] |
| 99% | Cc1cc(C[C@H]2CCCN(C(C)c3ccc4nc(C)[nH]c4n3)C2)cc(C)n1 (mixture of isomers) [Compound 8] |
| 100% | Cc1cc(C[C@H]2CCCN(C(C)c3ccc4cn(C)nc4n3)C2)cc(C)n1 (mixture of isomers) [Compound 12ab] |

biological target: T2, OGA (Homo sapiens, UniProt O60502); test: OGA cellular assay (ICC detection of O-GlcNAcylated proteins in HEK293 cells inducible for P301L mutant human Tau); type: cell-based; conditions: HEK293, HEK293 cells inducible for P301L mutant human Tau, maximum = Thiamet G 200 uM
T2 construct: HEK293 cells inducible for P301L mutant human Tau (isoform 2N4R) were established at Janssen; endogenous in cells; host or cells: HEK293 cells inducible for P301L mutant human Tau (2N4R)
T2 sequence (O60502 1-916): T1 sequence (O60502 1-916)
Description: HEK293 cells inducible for P301L mutant human Tau (isoform 2N4R) were established at Janssen. Thiamet-G was used for both plate validation (high control) and as reference compound (reference EC50 assay validation). OGA inhibition is evaluated through the immunocytochemical (ICC) detection of O-GlcNAcylated proteins by the use of a monoclonal antibody (CTD110.6; Cell Signaling, #9875) detecting 0-GlcNAcylated residues as previously described (Dorfmueller et al. 2010 Chemistry & biology, 17:1250). Inhibition of OGA will result in an increase of O-GlcNAcylated protein levels resulting in an increased signal in the experiment. Cell nuclei are stained with Hoechst to give a cell culture quality control and a rough estimate of immediate compounds toxicity, if any. ICC pictures are imaged with a Perkin Elmer Opera Phenix plate microscope and quantified with the provided software Perkin Elmer Harmony 4.1.
Cells were propagated in DMEM high Glucose (Sigma, #D5796) following standard procedures. 2 days before the cell assay cells are split, counted and seeded in Poly-D-Lysine (PDL) coated 96-wells (Greiner, #655946) plate at a cell density of 12,000 cells per cm^2 (4,000 cells per well) in 100 μl of Assay Medium (Low Glucose medium is used to reduce basal levels of GlcNAcylation) (Park et al. 2014 The Journal of biological chemistry 289:13519). At the day of compound test medium from assay plates was removed and replenished with 90 μl of fresh Assay Medium. 10 μl of compounds at a 10fold final concentration were added to the wells. Plates were centrifuged shortly before incubation in the cell incubator for 6 hours. DMSO concentration was set to 0.2%. Medium is discarded by applying vacuum. For staining of cells medium was removed and cells washed once with 100 μl D-PBS (Sigma, #D8537). From next step onwards unless other stated assay volume was always 50 μl and incubation was performed without agitation and at room temperature. Cells were fixed in 50 μl of a 4% paraformaldehyde (PFA, Alpha aesar, #043368) PBS solution for 15 minutes at room temperature. […] Before analysis samples were washed 2 times manually for 5 minutes in ICC base buffer.
Imaging is performed using Perkin Elmer Phenix Opera using a water 20× objective and recording 9 fields per well. Intensity readout at 488 nm is used as a measure of O-GlcNAcylation level of total proteins in wells. To assess potential toxicity of compounds nuclei were counted using the Hoechst staining. IC50-values are calculated using parametric non-linear regression model fitting. As a maximum inhibition Thiamet G at a 200 uM concentration is present on each plate. In addition, a concentration response of Thiamet G is calculated on each plate.

| Emax | SMILES |
| --- | --- |
| 64% | Cc1cc(C[C@H]2CCCN(C(C)c3cnc4c(c3)nc(C)n4C)C2)cc(C)n1 (mixture of isomers) [Compound 11] |
| 11% | Cc1cc(OC[C@@H]2CCN(C(C)c3ccc4sc(C)nc4n3)C2)cc(C)n1 (mixture of isomers) [Compound 47] |
| 16% | Cc1cc(OC[C@H]2CCN(C(C)c3ccc4sc(C)nc4n3)C2)cc(C)n1 (mixture of isomers) [Compound 48] |
| 70% | Cc1cc(C[C@H]2CCCN(Cc3ccc4sc(C)nc4n3)C2)cc(C)n1 (mixture of isomers) [Compound 52] |
| 67% | COc1cc(OC[C@H]2CCCN(C(C)c3ccc4sc(C)nc4n3)C2)cc(C)n1 (mixture of isomers) [Compound 54] |
| 66% | Cc1cc(CO[C@H]2CCCN(C(C)c3cc4nc(C)sc4cc3F)C2)cc(C)n1 (mixture of isomers) [Compound 99] |
| 23% | Cc1cc(C[C@H]2CCCN(C(C)c3ccc4nc(C)[nH]c4n3)C2)cc(C)n1 (mixture of isomers) [Compound 8] |
| 71% | Cc1cc(C[C@H]2CCCN(C(C)c3ccc4cn(C)nc4n3)C2)cc(C)n1 (mixture of isomers) [Compound 12ab] |

same assay, conditions: HEK293 cells inducible for P301L mutant human Tau, 6 hours incubation; read-out: Cellular hOGA; pEC50 (converted)

| EC50 | SMILES |
| --- | --- |
| 0.631 µM | Cc1cc(C[C@H]2CCCN(C(C)c3cnc4c(c3)nc(C)n4C)C2)cc(C)n1 (mixture of isomers) [Compound 11] |
| > 1 µM | Cc1cc(OC[C@@H]2CCN(C(C)c3ccc4sc(C)nc4n3)C2)cc(C)n1 (mixture of isomers) [Compound 47] |
| > 1 µM | Cc1cc(OC[C@H]2CCN(C(C)c3ccc4sc(C)nc4n3)C2)cc(C)n1 (mixture of isomers) [Compound 48] |
| > 1 µM | Cc1cc(C[C@H]2CCCN(C(C)c3ccc4nc(C)sc4c3)C2)cc(C)n1 (mixture of isomers) [Compound 51] |
| 0.501 µM | Cc1cc(C[C@H]2CCCN(Cc3ccc4sc(C)nc4n3)C2)cc(C)n1 (mixture of isomers) [Compound 52] |
| 0.158 µM | COc1cc(OC[C@H]2CCCN(C(C)c3ccc4sc(C)nc4n3)C2)cc(C)n1 (mixture of isomers) [Compound 54] |
| 0.0631 µM | Cc1cc(CO[C@H]2CCCN(C(C)c3cc4nc(C)sc4cc3F)C2)cc(C)n1 (mixture of isomers) [Compound 99] |
| > 1 µM | Cc1cc(C[C@H]2CCCN(C(C)c3ccc4nc(C)[nH]c4n3)C2)cc(C)n1 (mixture of isomers) [Compound 8] |
| 0.251 µM | Cc1cc(C[C@H]2CCCN(C(C)c3ccc4cn(C)nc4n3)C2)cc(C)n1 (mixture of isomers) [Compound 12ab] |
